Source: patent publication US7625841B2, “Substituted thiene-3-ylsulphonylamino(thio)carbonyltriazolin(ethi)ones” (Bayer CropScience AG, priority 2001, dated 2009)
Counter-ions that a name gives are not always drawn.

Legend:
[1] = tested on: weeds; assay: Post-emergence test, summary for weeds; format: in vivo
Method in brief: (§1)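 First, active compound was mixed with acetone and emulsifier and diluted with water. Next, test plants 5-15 cm high were sprayed so the desired amount per area was delivered in 1000 l water/ha. Finally, after three weeks, damage was scored in % against untreated plants.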

[2] = tested on: crop plants, such as, for example, maize, soyabean and wheat; assay: Pre-emergence test, summary for crop plants; format: in vivo
Method in brief: (§2)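 Active compound mixed with acetone, emulsifier added, concentrate diluted with water to the required rate. Seeds sown in normal soil, soil sprayed after 24 hours at a water volume of 1000 l/ha. Plants assessed three weeks later for % damage against untreated plants.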

[3] = tested on: weeds; assay: Pre-emergence test, summary for weeds; format: in vivo
Method in brief: as §2

[4] = tested on: rape; assay: Post-emergence test/greenhouse; format: in vivo; settings: greenhouse, application rate 15 gai/ha, rated after three weeks, 0%=no effect, 100%=total destruction
Method in brief: as §1

[5] = tested on: Echinochloa; assay: Post-emergence test/greenhouse; format: in vivo; settings: greenhouse, application rate 15 gai/ha, rated after three weeks, 0%=no effect, 100%=total destruction
Method in brief: as §1

[6] = tested on: Alopecurus; assay: Post-emergence test/greenhouse; format: in vivo; settings: greenhouse, application rate 15 gai/ha, rated after three weeks, 0%=no effect, 100%=total destruction
Method in brief: as §1

[7] = tested on: Lolium; assay: Post-emergence test/greenhouse; format: in vivo; settings: greenhouse, application rate 15 gai/ha, rated after three weeks, 0%=no effect, 100%=total destruction
Method in brief: as §1

[8] = tested on: Chenopodium; assay: Post-emergence test/greenhouse; format: in vivo; settings: greenhouse, application rate 15 gai/ha, rated after three weeks, 0%=no effect, 100%=total destruction
Method in brief: as §1

[9] = tested on: Galium; assay: Pre-emergence test/greenhouse; format: in vivo; settings: greenhouse, application rate 15 gai/ha, rated after three weeks, 0%=no effect, 100%=total destruction
Method in brief: as §2

[10] = tested on: Amaranthus; assay: Pre-emergence test/greenhouse; format: in vivo; settings: greenhouse, application rate 15 gai/ha, rated after three weeks, 0%=no effect, 100%=total destruction
Method in brief: as §2

[11] = tested on: Stellaria; assay: Pre-emergence test/greenhouse; format: in vivo; settings: greenhouse, application rate 15 gai/ha, rated after three weeks, 0%=no effect, 100%=total destruction; for pest or weed control at 15 g/ha: Stellaria, 504 h, read-out: degree of damage to the plants, Stellaria
Method in brief: as §2

[12] = tested on: Setaria; assay: Pre-emergence test/greenhouse; format: in vivo; settings: greenhouse, application rate 15 gai/ha, rated after three weeks, 0%=no effect, 100%=total destruction
Method in brief: as §2

[13] = tested on: Bromus; assay: Pre-emergence test/greenhouse; format: in vivo; settings: greenhouse, application rate 15 gai/ha, rated after three weeks, 0%=no effect, 100%=total destruction
Method in brief: as §2

[14] = tested on: Avena fatua; assay: Pre-emergence test/greenhouse; format: in vivo; settings: greenhouse, application rate 15 gai/ha, rated after three weeks, 0%=no effect, 100%=total destruction
Method in brief: as §2

[15] = tested on: Lolium; assay: Pre-emergence test/greenhouse; format: in vivo; settings: greenhouse, application rate 15 gai/ha, rated after three weeks, 0%=no effect, 100%=total destruction; for pest or weed control at 15 g/ha: Lolium, 504 h, read-out: degree of damage to the plants, Lolium
Method in brief: as §2

[16] = tested on: crop plants such as, for example, maize, oilseed rape and wheat; assay: Post-emergence test, summary for crop plants; format: in vivo
Method in brief: as §1

[17] = tested on: Digitaria; assay: Post-emergence test/greenhouse; format: in vivo; settings: greenhouse, application rate 15 gai/ha, rated after three weeks, 0%=no effect, 100%=total destruction
Method in brief: as §1

[18] = tested on: Xanthium; assay: Post-emergence test/greenhouse; format: in vivo; settings: greenhouse, application rate 15 gai/ha, rated after three weeks, 0%=no effect, 100%=total destruction
Method in brief: as §1

[19] = tested on: Datura; assay: Post-emergence test/greenhouse; format: in vivo; settings: greenhouse, application rate 15 gai/ha, rated after three weeks, 0%=no effect, 100%=total destruction
Method in brief: as §1

[20] = tested on: Polygonum; assay: Post-emergence test/greenhouse; format: in vivo; settings: greenhouse, application rate 15 gai/ha, rated after three weeks, 0%=no effect, 100%=total destruction
Method in brief: as §1

[21] = tested on: Setaria; assay: Post-emergence test/greenhouse; format: in vivo; settings: greenhouse, application rate 15 gai/ha, rated after three weeks, 0%=no effect, 100%=total destruction
Method in brief: as §1

[22] = tested on: Bromus; assay: Post-emergence test/greenhouse; format: in vivo; settings: greenhouse, application rate 15 gai/ha, rated after three weeks, 0%=no effect, 100%=total destruction
Method in brief: as §1

[23] = tested on: Avena fatua; assay: Post-emergence test/greenhouse; format: in vivo; settings: greenhouse, application rate 15 gai/ha, rated after three weeks, 0%=no effect, 100%=total destruction
Method in brief: as §1

[24] = tested on: wheat; assay: Post-emergence test/greenhouse; format: in vivo; settings: greenhouse, application rate 15 gai/ha, rated after three weeks, 0%=no effect, 100%=total destruction
Method in brief: as §1

[25] = tested on: maize; assay: Post-emergence test/greenhouse; format: in vivo; settings: greenhouse, application rate 15 gai/ha, rated after three weeks, 0%=no effect, 100%=total destruction
Method in brief: as §1

[26] = tested on: soybeans; assay: Pre-emergence test/greenhouse; format: in vivo; settings: greenhouse, application rate 15 gai/ha, rated after three weeks, 0%=no effect, 100%=total destruction
Method in brief: as §2

[27] = tested on: Matricaria; assay: Pre-emergence test/greenhouse; format: in vivo; settings: greenhouse, application rate 15 gai/ha, rated after three weeks, 0%=no effect, 100%=total destruction; for pest or weed control at 15 g/ha: Matricaria, 504 h, read-out: degree of damage to the plants, Matricaria
Method in brief: as §2

[28] = tested on: Digitaria; assay: Pre-emergence test/greenhouse; format: in vivo; settings: greenhouse, application rate 15 gai/ha, rated after three weeks, 0%=no effect, 100%=total destruction
Method in brief: as §2

[29] = tested on: Xanthium; assay: Pre-emergence test/greenhouse; format: in vivo; settings: greenhouse, application rate 15 gai/ha, rated after three weeks, 0%=no effect, 100%=total destruction; for pest or weed control at 15 g/ha: Xanthium, 504 h, read-out: degree of damage to the plants, Xanthium
Method in brief: as §2

[30] = tested on: Polygonum; assay: Pre-emergence test/greenhouse; format: in vivo; settings: greenhouse, application rate 15 gai/ha, rated after three weeks, 0%=no effect, 100%=total destruction
Method in brief: as §2

[31] = tested on: Alopecurus; assay: Pre-emergence test/greenhouse; format: in vivo; settings: greenhouse, application rate 15 gai/ha, rated after three weeks, 0%=no effect, 100%=total destruction
Method in brief: as §2

[32] = tested on: Solanum; assay: Pre-emergence test/greenhouse; format: in vivo; settings: greenhouse, application rate 15 gai/ha, rated after three weeks, 0%=no effect, 100%=total destruction
Method in brief: as §2

[33] = tested on: wheat; assay: Pre-emergence test/greenhouse; format: in vivo; settings: greenhouse, application rate 15 gai/ha, rated after three weeks, 0%=no effect, 100%=total destruction; for plant injury at 15 g/ha: Triticum aestivum, 504 h, read-out: degree of damage to the plants, wheat
Method in brief: as §2

[34] = tested on: Chenopodium; assay: Pre-emergence test/greenhouse; format: in vivo; settings: greenhouse, application rate 15 gai/ha, rated after three weeks, 0%=no effect, 100%=total destruction
Method in brief: as §2

[35] = tested on: maize; assay: Pre-emergence test/greenhouse; format: in vivo; settings: greenhouse, application rate 15 gai/ha, rated after three weeks, 0%=no effect, 100%=total destruction; for plant injury at 15 g/ha: Zea mays, 504 h, read-out: degree of damage to the plants, maize
Method in brief: as §2

[36] = tested on: Viola; assay: Post-emergence test/greenhouse; format: in vivo; settings: greenhouse, application rate 15 gai/ha, rated after three weeks, 0%=no effect, 100%=total destruction
Method in brief: as §1

| Structure (SMILES) | activity against weeds compared with the known compounds (A) and (B) [1] | tolerance by crop plants [2] | activity against weeds compared with the known compounds (A) to (G) [3] | degree of damage to the plants, Echinochloa [5] | degree of damage to the plants, Alopecurus [6] | degree of damage to the plants, Lolium [7] | degree of damage to the plants, Galium [9] | degree of damage to the plants, Amaranthus [10] | degree of damage to the plants, Stellaria [11] | degree of damage to the plants, Setaria [12] | degree of damage to the plants, Bromus [13] | degree of damage to the plants, Lolium [15] | compatibility with crop plants compared with the known compounds (A) and (B) [16] | degree of damage to the plants, Xanthium [18] | degree of damage to the plants, Datura [19] | degree of damage to the plants, Polygonum [20] | degree of damage to the plants, Bromus [22] | degree of damage to the plants, wheat [24] | degree of damage to the plants, maize [25] | degree of damage to the plants, Solanum [32] | further results |
| --- | --- | --- | --- | --- | --- | --- | --- | --- | --- | --- | --- | --- | --- | --- | --- | --- | --- | --- | --- | --- | --- |
| CCCc1nn(C(=O)NS(=O)(=O)c2c(C(=O)OC)csc2C)c(=O)n1OC [Example 42] | considerably stronger activity against weeds | tolerated well by crop plants | considerably stronger activity against weeds | 90% | 90% | 90% | 100% | 100% | 100% | 95% | 95% | 95% | substantially better compatibility with crop plants |  |  |  |  |  |  |  | degree of damage to the plants, rape [4]: 0%; degree of damage to the plants, Chenopodium [8]: 95%; degree of damage to the plants, Avena fatua [14]: 90% |
| CCCOc1nn(C(=O)NS(=O)(=O)c2c(C(=O)OC)csc2C)c(=O)n1C1CC1 [(B), methyl 4-[[[(4-cyclopropyl-4,5-dihydro-5-oxo-3-n-propoxy-1H-1,2,4-triazol-1-yl)-carbonyl]amino]sulfonyl]-5-methyl-3-thiophenecarboxylate, reference compound] |  |  |  |  | 0% | 60% | 20% | 80% |  | 40% | 40% |  |  | 50% | 80% | 70% | 50% | 30% | 90% | 80% | degree of damage to the plants, Digitaria [17]: 20%; degree of damage to the plants, Setaria [21]: 60%; degree of damage to the plants, Avena fatua [23]: 50%; degree of damage to the plants, soybeans [26]: 0%; pest or weed control at 15 g/ha [27]: 40%; degree of damage to the plants, Digitaria [28]: 0%; pest or weed control at 15 g/ha [29]: 0%; degree of damage to the plants, Polygonum [30]: 50%; pest or weed control at 15 g/ha [11]: 60%; degree of damage to the plants, Alopecurus [31]: 20%; degree of damage to the plants, Avena fatua [14]: 10%; pest or weed control at 15 g/ha [15]: 20%; plant injury at 15 g/ha [33]: 0%; degree of damage to the plants, Chenopodium [34]: 40%; plant injury at 15 g/ha [35]: 0% |
| CCOC(=O)c1csc(C)c1S(=O)(=O)NC(=O)n1nc(OC)n(C2CC2)c1=O [Example 56] | considerably stronger activity against weeds | tolerated well by crop plants | considerably stronger activity against weeds | 95% |  | 90% |  | 100% | 100% |  | 95% | 95% | substantially better compatibility with crop plants | 95% | 90% |  | 90% | 0% |  | 100% | degree of damage to the plants, Viola [36]: 95%; degree of damage to the plants, Avena fatua [23]: 90%; degree of damage to the plants, Matricaria [27]: 100%; degree of damage to the plants, Xanthium [29]: 95%; degree of damage to the plants, wheat [33]: 0%; degree of damage to the plants, maize [35]: 0% |
| CCOC(=O)c1csc(C)c1S(=O)(=O)NC(=O)n1nc(OC)n(C)c1=O [Example 1, ethyl 4-[[[(3-methoxy-4-methyl-5-oxo-1H-1,2,4-triazol-1-yl)carbonyl]amino]sulfonyl]-5-methyl-3-thiophenecarboxylate] | considerably stronger activity against weeds | tolerated well by crop plants | considerably stronger activity against weeds | 90% |  | 90% |  | 100% |  |  | 95% |  | substantially better compatibility with crop plants | 95% | 95% | 95% |  | 0% | 0% | 100% | degree of damage to the plants, Viola [36]: 95%; pest or weed control at 15 g/ha [27]: 100%; pest or weed control at 15 g/ha [29]: 95%; pest or weed control at 15 g/ha [11]: 100%; pest or weed control at 15 g/ha [15]: 90%; plant injury at 15 g/ha [33]: 0%; plant injury at 15 g/ha [35]: 0%; melting point: 176 °C |
| CCOC(=O)c1csc(C)c1S(=O)(=O)NC(=O)n1nc(OC)n(C)c1=O (as salt: sodium) [Example 1, ethyl 4-[[[(3-methoxy-4-methyl-5-oxo-1H-1,2,4-triazol-1-yl)carbonyl]amino]sulfonyl]-5-methyl-3-thiophenecarboxylate] |  |  |  |  |  |  |  |  |  |  |  |  |  |  |  |  |  |  |  |  | melting point: 220 °C |
| CCOC(=O)c1csc(C)c1S(=O)(=O)NC(=O)n1nc(OCC)n(C)c1=O [Example 55] | considerably stronger activity against weeds | tolerated well by crop plants | considerably stronger activity against weeds | 90% | 90% | 90% |  |  | 100% |  | 95% | 90% | substantially better compatibility with crop plants | 95% | 95% | 90% | 90% |  | 0% | 100% | degree of damage to the plants, Xanthium [29]: 95%; degree of damage to the plants, Polygonum [30]: 95%; degree of damage to the plants, Alopecurus [31]: 95%; degree of damage to the plants, wheat [33]: 0%; degree of damage to the plants, maize [35]: 0% |
